Reference: patent US20100273814A1, “((PHENYL)IMIDAZOLYL)METHYLHETEROARYL COMPOUNDS” (priority 2007, published 2010)

Key:
Format in all cases: cell-based
[1] = biological target: T1, alpha2C receptor (Homo sapiens, UniProt P18825); test: Receptor Selection and Amplification Technology (RSAT) assay, alpha2C; details: RSAT; for EC50: transfected NIH-3T3 cells, value outside brackets, read-out: Alpha 2C EC50 (potency); for Alpha 2C intrinsic activity (efficacy): ratio of maximal effect to that of standard full agonist brimonidine (UK14304), value in brackets
T1 construct: expressed in transfected cells; host or cells: NIH-3T3 cells
T1 sequence (P18825 1-462): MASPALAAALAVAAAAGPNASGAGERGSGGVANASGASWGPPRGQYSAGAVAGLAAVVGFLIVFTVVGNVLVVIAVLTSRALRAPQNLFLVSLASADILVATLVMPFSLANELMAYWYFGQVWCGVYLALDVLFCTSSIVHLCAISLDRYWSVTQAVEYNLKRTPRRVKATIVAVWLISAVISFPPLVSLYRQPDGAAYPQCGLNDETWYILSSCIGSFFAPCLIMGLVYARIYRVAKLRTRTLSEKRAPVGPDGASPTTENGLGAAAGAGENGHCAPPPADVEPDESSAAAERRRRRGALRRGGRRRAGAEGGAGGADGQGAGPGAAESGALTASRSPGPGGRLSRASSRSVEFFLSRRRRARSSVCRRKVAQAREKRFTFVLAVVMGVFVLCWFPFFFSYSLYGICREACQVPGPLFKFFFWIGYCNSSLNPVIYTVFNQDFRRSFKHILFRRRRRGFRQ
Method: (§1) Receptor Selection and Amplification Technology (RSAT) Assay
(§2) The RSAT assay measures a receptor-mediated loss of contact inhibition that results in selective proliferation of receptor-containing cells in a mixed population of confluent cells. The increase in cell number is assessed with an appropriate transfected marker gene such as β-galactosidase, the activity of which can be easily measured in a 96-well format. Receptors that activate the G protein, Gq, elicit this response. Alpha2 receptors, which normally couple to Gi, activate the RSAT response when coexpressed with a hybrid Gq protein that has a Gi receptor recognition domain, called Gq/i5.
(§3) NIH-3T3 cells are plated at a density of 2×10^6 cells in 15 cm dishes and maintained in Dulbecco's modified Eagle's medium supplemented with 10% calf serum. One day later, cells are cotransfected by calcium phosphate precipitation with mammalian expression plasmids encoding p-SV-β-galactosidase (5-10 μg), receptor (1-2 μg) and G protein (1-2 μg). 40 μg salmon sperm DNA may also be included in the transfection mixture. Fresh media is added on the following day and 1-2 days later, cells are harvested and frozen in 50 assay aliquots. Cells are thawed and […] added to 100 aliquots of various concentrations of drugs in triplicate in 96-well dishes. Incubations continue 72-96 hr at 37° C. After washing with phosphate-buffered saline, β-galactosidase enzyme activity is determined by adding 200 μl of the chromogenic substrate (consisting of 3.5 mM o-nitrophenyl-β-D-galactopyranoside and 0.5% nonidet P-40 in phosphate buffered saline), incubating overnight at 30° C. and measuring optical density at 420 nm. The absorbance is a measure of enzyme activity, which depends on cell number and reflects a receptor-mediated cell proliferation. The efficacy or intrinsic activity is calculated as a ratio of the maximal effect of the drug to the maximal effect of a standard full agonist for each receptor subtype. Brimonidine, also called UK14304, the chemical structure of which is shown below, is used as the standard agonist for the alpha2A, alpha2B and alpha2C receptors. The EC50 is the concentration at which the drug effect is half of its maximal effect.
(§4) EC50 values are nanomolar. ND stands for “not determinable” at concentrations less than 10 micromolar. IA stands for “intrinsic activity.”

[2] = biological target: T2, alpha2B receptor (Homo sapiens, UniProt P18089); test: Receptor Selection and Amplification Technology (RSAT) assay, alpha2B; details: RSAT; for EC50: transfected NIH-3T3 cells, value outside brackets, read-out: Alpha 2B EC50 (potency); for Alpha 2B intrinsic activity (efficacy): ratio of maximal effect to that of standard full agonist brimonidine (UK14304), value in brackets
T2 construct: expressed in transfected cells; host or cells: NIH-3T3 cells
T2 sequence (P18089 1-450): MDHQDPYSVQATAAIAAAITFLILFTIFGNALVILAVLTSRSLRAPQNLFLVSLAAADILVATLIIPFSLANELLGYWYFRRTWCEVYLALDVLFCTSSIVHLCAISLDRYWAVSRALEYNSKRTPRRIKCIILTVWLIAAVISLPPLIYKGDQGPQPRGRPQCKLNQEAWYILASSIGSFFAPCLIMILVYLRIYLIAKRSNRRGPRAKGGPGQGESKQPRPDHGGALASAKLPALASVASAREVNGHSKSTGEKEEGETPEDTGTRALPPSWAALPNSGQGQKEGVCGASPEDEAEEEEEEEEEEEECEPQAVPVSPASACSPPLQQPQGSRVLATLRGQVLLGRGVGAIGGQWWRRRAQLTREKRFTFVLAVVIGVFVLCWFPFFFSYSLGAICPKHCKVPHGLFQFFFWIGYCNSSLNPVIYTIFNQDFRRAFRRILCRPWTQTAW
Method: as §1, §2, §3, §4

[3] = biological target: T3, alpha2A receptor (Homo sapiens, UniProt P08913); test: Receptor Selection and Amplification Technology (RSAT) assay, alpha2A; details: RSAT; for EC50: transfected NIH-3T3 cells, value outside brackets, read-out: Alpha 2A EC50 (potency); for Alpha 2A intrinsic activity (efficacy): ratio of maximal effect to that of standard full agonist brimonidine (UK14304), value in brackets
T3 construct: expressed in transfected cells; host or cells: NIH-3T3 cells
T3 sequence (P08913 1-465): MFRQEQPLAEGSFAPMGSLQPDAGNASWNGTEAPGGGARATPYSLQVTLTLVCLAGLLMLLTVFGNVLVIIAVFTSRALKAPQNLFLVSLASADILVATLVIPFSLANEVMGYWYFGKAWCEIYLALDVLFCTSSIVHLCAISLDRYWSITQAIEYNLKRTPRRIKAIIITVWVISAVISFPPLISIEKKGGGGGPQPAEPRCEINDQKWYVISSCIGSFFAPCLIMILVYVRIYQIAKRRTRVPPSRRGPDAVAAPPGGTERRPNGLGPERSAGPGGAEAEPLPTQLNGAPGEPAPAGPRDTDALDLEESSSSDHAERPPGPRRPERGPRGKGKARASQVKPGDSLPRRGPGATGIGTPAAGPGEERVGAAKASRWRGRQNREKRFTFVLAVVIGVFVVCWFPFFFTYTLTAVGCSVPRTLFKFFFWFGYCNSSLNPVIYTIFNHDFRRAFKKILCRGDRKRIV
Method: as §1, §2, §3, §4

Structure (SMILES)	EC50 [1]	Alpha 2C intrinsic activity (efficacy) [1]	EC50 [2]	Alpha 2B intrinsic activity (efficacy) [2]	EC50 [3]	Alpha 2A intrinsic activity (efficacy) [3]
Fc1c(Cl)cccc1C(c1cccnc1)c1cnc[nH]1 (stereo not drawn) [3-((3-chloro-2-fluorophenyl)(1H-imidazol-5-yl)methyl)pyridine]	64 nM	0.55	5.2 nM	1.34	> 10000 nM	0.28
Fc1cccc(C(c2cccnc2)c2c[nH]cn2)c1 (stereo not drawn) [3-((3-fluorophenyl)(1H-imidazol-5-yl)methyl)pyridine]	3640 nM	0.17	222 nM	1.01	> 10000 nM	0.05
c1ccc(C(c2cccnc2)c2c[nH]cn2)cc1 (stereo not drawn) [3-((phenyl)(1H-imidazol-5-yl)methyl)pyridine]	> 10000 nM	0.16	190 nM	0.72	> 10000 nM	0.11
Clc1cccc(C(c2ccncc2)c2c[nH]cn2)c1Cl (stereo not drawn) [4-((2,3-dichlorophenyl)(1H-imidazol-5-yl)methyl)pyridine]	97 nM	0.72	3.2 nM	1.31	> 10000 nM	0.18
Fc1cccc(C(c2ccncc2)c2c[nH]cn2)c1F (stereo not drawn) [4-((2,3-difluorophenyl)(1H-imidazol-5-yl)methyl)pyridine]	2490 nM	1.02	837 nM	0.70	> 10000 nM	0.01
Cc1cccc(C(c2ccncc2)c2c[nH]cn2)c1C (stereo not drawn) [4-((2,3-dimethylphenyl)(1H-imidazol-5-yl)methyl)pyridine]	605 nM	0.49	4.4 nM	1.07	1510 nM	0.32
Fc1c(C(c2ccncc2)c2c[nH]cn2)cccc1C(F)(F)F (stereo not drawn) [4-((2-fluoro-3-(trifluoromethyl)phenyl)(1H-imidazol-5-yl)methyl)pyridine]	> 10000 nM	0.29	45 nM	1.29	> 10000 nM	0.14
Fc1ccccc1C(c1ccncc1)c1c[nH]cn1 (stereo not drawn) [4-((2-fluorophenyl)(1H-imidazol-5-yl)methyl)pyridine]	365 nM	0.48	350 nM	0.78	> 10000 nM	0.04
Cc1ccccc1C(c1ccncc1)c1c[nH]cn1 (stereo not drawn) [4-((2-methylphenyl)(1H-imidazol-5-yl)methyl)pyridine]	265 nM	1.08	63 nM	0.82	> 10000 nM	0.06
Fc1c(Cl)cccc1C(c1ccncc1)c1cnc[nH]1 (stereo not drawn) [4-((3-chloro-2-fluorophenyl)(1H-imidazol-5-yl)methyl)pyridine]	340 nM	0.60	40 nM	1.02	> 10000 nM	0.09
Cc1c(Cl)cccc1C(c1ccncc1)c1c[nH]cn1 (stereo not drawn) [4-((3-chloro-2-methylphenyl)(1H-imidazol-5-yl)methyl)pyridine]	83 nM	0.46	10.3 nM	1.10	> 10000 nM	0.11
Cc1c(F)cccc1C(c1ccncc1)c1c[nH]cn1 (stereo not drawn) [4-((3-fluoro-2-methylphenyl)(1H-imidazol-5-yl)methyl)pyridine]	> 10000 nM	0.27	72 nM	1.17	> 10000 nM	0.03
Fc1cccc(C(c2ccncc2)c2c[nH]cn2)c1 (stereo not drawn) [4-((3-fluorophenyl)(1H-imidazol-5-yl)methyl)pyridine]	> 10000 nM	0.23	562 nM	0.93	> 10000 nM	0.04
c1ccc(C(c2ccncc2)c2c[nH]cn2)cc1 (stereo not drawn) [4-((phenyl)(1H-imidazol-5-yl)methyl)pyridine]	> 10000 nM	0.14	309 nM	0.69	> 10000 nM	0.10
